Measurements as given in patent publication US20240335402A1, “BIODEGRADABLE ANTI-INFECTIVE FORMULATIONS” (New Mexico Tech University Research Park Corporation, priority 2023, published 2024).

Tested on: colistin (polymyxin E, or PME) resistant bacterium S. maltophilia
Test: Spot test on lawn of colistin resistant bacterium
Format: cell-based
Conditions: 10 μL spotted, 37° C., 2 days

SMILES: O=C(O)CC[C@@H](C(=O)O)N(CC(=O)O)CC(=O)O [GLDA, N,N-Dicarboxymethyl glutamic acid]
- activity / kill of S. maltophilia lawn: did not work as well as CTAC
